In brackets after ≈: the same amount, converted by molar mass.
How the values were obtained:
[1] = Amount of vincristine (VCR) accumulation in multidrug-resistant human ovarian cancer 2780AD cells at a concentration of 10 ug/mL.; type: functional, A2780 ADR
[2] = Amount of vincristine (VCR) accumulation in multidrug-resistant human ovarian cancer 2780AD cells at a concentration of 1 ug/mL.; type: functional, A2780 ADR
[3] = Cytotoxicity against murine lymphoma L1210 cells; type: functional, cell-based; details: Mus musculus
[4] = Cytotoxicity against human epidermoid carcinoma KB cells; type: functional, cell-based

With `CC(=O)O[C@@H]1[C@@H]2CC(=O)C(C)=C([C@@H](OC(C)=O)[C@H](OC(C)=O)[C@]3(C)CC[C@H](O)[C@]4(CO4)[C@@H]13)C2(C)C` the Vincristine accumulation [1] was 238% and the “Vincristine accumulation (% of control)” value [2] was 144%.

For `CC[Si](CC)(CC)O[C@H]1CC[C@@]2(C)[C@@H](OC(C)=O)[C@H](OC(C)=O)C3=C(C)C(=O)C[C@@H]([C@@H](OC(C)=O)[C@@H]2[C@@]12CO2)C3(C)C`, the Vincristine accumulation [1] was 748% and the “Vincristine accumulation (% of control)” value [2] was 227%.

In the case of `C=C1[C@@H](OC(=O)/C=C/c2ccccc2)CC[C@@]2(C)[C@@H](O)[C@H](O)C3=C(C)C(=O)C[C@@H]([C@@H](O)[C@H]12)C3(C)C`, the Vincristine accumulation [1] is reported as 518% and the “Vincristine accumulation (% of control)” value [2] is reported as 225%.

With `C=C1[C@@H](O)CC[C@@]2(C)[C@@H](OC(C)=O)[C@H](OC(C)=O)C3=C(C)C(=O)C[C@@H]([C@@H](O)[C@H]12)C3(C)C` the Vincristine accumulation [1] was 271% and the “Vincristine accumulation (% of control)” value [2] was 139%.

For `C=C1[C@@H](OC(=O)/C=C/c2ccccc2)CC[C@@]2(C)[C@@H](OC(C)=O)[C@H](OC(C)=O)C3=C(C)C(=O)C[C@@H]([C@@H](OC(C)=O)[C@H]12)C3(C)C`, the Vincristine accumulation [1] was 571% and the “Vincristine accumulation (% of control)” value [2] was 195%.

With `C=C1[C@@H](OCOCc2ccccc2)CC[C@@]2(C)[C@@H](OC(C)=O)[C@H](OC(C)=O)C3=C(C)C(=O)C[C@@H]([C@@H](OC(C)=O)[C@H]12)C3(C)C` the Vincristine accumulation [1] was 1110%, the IC50 [3] was 8 µg/mL (≈ 13.4 µM) and the IC50 [4] was 9 µg/mL (≈ 15.1 µM). The “Vincristine accumulation (% of control)” value [2] was 401%.

For `C=C1[C@@H](O)CC[C@@]2(C)[C@@H](OC(C)=O)[C@H](OC(C)=O)C3=C(C)[C@@H](O)C[C@@H]([C@@H](OC(C)=O)[C@H]12)C3(C)C`, the Vincristine accumulation [1] was 422% and the “Vincristine accumulation (% of control)” value [2] was 164%.

In the case of `C=C1[C@@H](OC(=O)/C=C/c2ccccc2)CC[C@@]2(C)[C@@H](OC(=O)/C=C/c3ccccc3)[C@H](OC(=O)/C=C/c3ccccc3)C3=C(C)C(=O)C[C@@H]([C@@H](OC(C)=O)[C@H]12)C3(C)C`, the Vincristine accumulation [1] is reported as 273% and the “Vincristine accumulation (% of control)” value [2] is reported as 181%.

With `C=C1[C@@H](O)CC[C@@]2(C)[C@@H](OC(C)=O)[C@H](OC(C)=O)C3=C(C)[C@H](OC(=O)/C=C/c4ccccc4)C[C@@H]([C@@H](OC(C)=O)[C@H]12)C3(C)C` the Vincristine accumulation [1] was 551% and the “Vincristine accumulation (% of control)” value [2] was 213%.

For `CC(=O)O[C@@H]1[C@@H]2CC(=O)C(C)=C([C@@H](OC(C)=O)[C@H](OC(C)=O)[C@]3(C)CC[C@H](OC(=O)c4ccccc4)[C@@]4(CO4)[C@@H]13)C2(C)C`, the Vincristine accumulation [1] was 402% and the “Vincristine accumulation (% of control)” value [2] was 140%.

With `C=C1[C@@H](OC(=O)c2ccccc2)CC[C@@]2(C)[C@@H](OC(C)=O)[C@H](OC(C)=O)C3=C(C)C(=O)C[C@@H]([C@@H](OC(=O)c4ccccc4)[C@H]12)C3(C)C` the Vincristine accumulation [1] was 470% and the “Vincristine accumulation (% of control)” value [2] was 146%.

In the case of `C=C1[C@@H](OC(=O)/C=C/c2ccccc2)CC[C@@]2(C)[C@@H](OC(=O)c3ccccc3)[C@H](OC(=O)c3ccccc3)C3=C(C)C(=O)C[C@@H]([C@@H](OC(C)=O)[C@H]12)C3(C)C`, the Vincristine accumulation [1] is reported as 210% and the “Vincristine accumulation (% of control)” value [2] is reported as 141%.

For `C=C1[C@@H](O)CC[C@@]2(C)[C@@H](OC(C)=O)[C@H](OC(C)=O)C3=C(C)[C@@H](OC(=O)c4ccccc4)C[C@@H]([C@@H](OC(C)=O)[C@H]12)C3(C)C`, the Vincristine accumulation [1] was 643% and the “Vincristine accumulation (% of control)” value [2] was 185%.

For `C=C1[C@@H](O)CC[C@@]2(C)[C@@H](OC(C)=O)[C@H](OC(C)=O)C3=C(C)[C@@H](OC(=O)/C=C/c4ccccc4)C[C@@H]([C@@H](OC(C)=O)[C@H]12)C3(C)C`, the Vincristine accumulation [1] was 699% and the “Vincristine accumulation (% of control)” value [2] was 249%.

With `C=C1[C@@H](OC(=O)c2ccccc2)CC[C@@]2(C)[C@@H](OC(C)=O)[C@H](OC(C)=O)C3=C(C)[C@@H](O)C[C@@H]([C@@H](OC(C)=O)[C@H]12)C3(C)C` the Vincristine accumulation [1] was 649% and the “Vincristine accumulation (% of control)” value [2] was 151%.

In the case of `C=C1[C@@H](O)CC[C@@]2(C)[C@@H](OC(C)=O)[C@H](OC(C)=O)C3=C(C)C(=O)C[C@@H]([C@@H](OC(=O)/C=C/c4ccccc4)[C@H]12)C3(C)C`, the Vincristine accumulation [1] is reported as 727% and the “Vincristine accumulation (% of control)” value [2] is reported as 207%.

For `C=C1[C@@H](O[Si](CC)(CC)CC)CC[C@@]2(C)[C@@H](OC(C)=O)[C@H](OC(C)=O)C3=C(C)C(=O)C[C@@H]([C@@H](OC(C)=O)[C@H]12)C3(C)C`, the Vincristine accumulation [1] was 669% and the “Vincristine accumulation (% of control)” value [2] was 213%.

In the case of `C=C1[C@@H](OC(=O)c2ccccc2)CC[C@@]2(C)[C@@H](OC(C)=O)[C@H](OC(C)=O)C3=C(C)C(=O)C[C@@H]([C@@H](OC(C)=O)[C@H]12)C3(C)C`, the Vincristine accumulation [1] is reported as 645% and the “Vincristine accumulation (% of control)” value [2] is reported as 184%.

In the case of `C=C1[C@@H](OC(=O)c2ccccc2)CC[C@@]2(C)[C@@H](OC(=O)c3ccccc3)[C@H](OC(=O)c3ccccc3)C3=C(C)C(=O)C[C@@H]([C@@H](OC(C)=O)[C@H]12)C3(C)C`, the Vincristine accumulation [1] is reported as 324% and the “Vincristine accumulation (% of control)” value [2] is reported as 132%.

In the case of `C=C1[C@@H](O)CC[C@@]2(C)[C@@H](OC(C)=O)[C@H](OC(C)=O)C3=C(C)[C@H](O)C[C@@H]([C@@H](OC(C)=O)[C@H]12)C3(C)C`, the Vincristine accumulation [1] is reported as 290% and the “Vincristine accumulation (% of control)” value [2] is reported as 149%.

For `CC[Si](CC)(CC)O[C@H]1CC[C@@]2(C)[C@@H](OC(C)=O)[C@H](OC(C)=O)C3=C(C)C(=O)C[C@@H]([C@@H](OC(C)=O)[C@@H]2[C@]12CO2)C3(C)C`, the Vincristine accumulation [1] was 752% and the “Vincristine accumulation (% of control)” value [2] was 233%.

With `CC(=O)O[C@@H]1[C@@H]2CC(=O)C(C)=C([C@@H](OC(C)=O)[C@H](OC(C)=O)[C@]3(C)CC[C@H](OC(=O)/C=C/c4ccccc4)[C@@]4(CO4)[C@@H]13)C2(C)C` the Vincristine accumulation [1] was 1027%, the IC50 [3] was 3 µg/mL (≈ 4.82 µM) and the IC50 [4] was > 10 µg/mL. For the same compound, the “Vincristine accumulation (% of control)” value [2] was 358%.

With `C=C1[C@@H](OC(=O)/C=C/c2ccccc2)CC[C@@]2(C)[C@@H](OC(=O)/C=C/c3ccccc3)[C@H](OC(=O)/C=C/c3ccccc3)C3=C(C)C(=O)C[C@@H]([C@@H](OC(=O)/C=C/c4ccccc4)[C@H]12)C3(C)C` the Vincristine accumulation [1] was 230% and the “Vincristine accumulation (% of control)” value [2] was 186%.

For `CC(=O)O[C@@H]1[C@@H]2CC(=O)C(C)=C([C@@H](OC(C)=O)[C@H](OC(C)=O)[C@]3(C)CC[C@H](OC(=O)c4ccccc4)[C@]4(CO4)[C@@H]13)C2(C)C`, the Vincristine accumulation [1] was 391% and the “Vincristine accumulation (% of control)” value [2] was 200%.

In the case of `CC(=O)O[C@@H]1[C@@H]2CC(=O)C(C)=C([C@@H](OC(C)=O)[C@H](OC(C)=O)[C@]3(C)CC[C@H](O)[C@@]4(CO4)[C@@H]13)C2(C)C`, the Vincristine accumulation [1] is reported as 364% and the “Vincristine accumulation (% of control)” value [2] is reported as 180%.

With `C=C1[C@@H](OC(=O)/C=C/c2ccccc2)CC[C@@]2(C)[C@@H](OC(C)=O)[C@H](OC(C)=O)C3=C(C)[C@H](OC(=O)/C=C/c4ccccc4)C[C@@H]([C@@H](OC(C)=O)[C@H]12)C3(C)C` the Vincristine accumulation [1] was 234% and the “Vincristine accumulation (% of control)” value [2] was 157%.

With `C=C1[C@@H](OC(=O)c2ccccc2)CC[C@@]2(C)[C@@H](OC(C)=O)[C@H](OC(C)=O)C3=C(C)[C@H](OC(=O)c4ccccc4)C[C@@H]([C@@H](OC(C)=O)[C@H]12)C3(C)C` the Vincristine accumulation [1] was 391% and the “Vincristine accumulation (% of control)” value [2] was 197%.

For `C=C1[C@@H](OC(=O)/C=C/c2ccccc2)CC[C@@]2(C)[C@@H](O)[C@H](O)C3=C(C)C(=O)C[C@@H]([C@@H](OC(C)=O)[C@H]12)C3(C)C`, the Vincristine accumulation [1] was 619% and the “Vincristine accumulation (% of control)” value [2] was 274%.

With `C=C1[C@@H](O)CC[C@@]2(C)[C@@H](OC(C)=O)[C@H](OC(C)=O)C3=C(C)C(=O)C[C@@H]([C@@H](OC(C)=O)[C@H]12)C3(C)C` [TAXININE A] the Vincristine accumulation [1] was 461% and the “Vincristine accumulation (% of control)” value [2] was 153%.

With `COc1ccc(CCN(C)CCCC(C#N)(c2ccc(OC)c(OC)c2)C(C)C)cc1OC` (centres undefined) [VERAPAMIL] the Vincristine accumulation [1] was 739% and the “Vincristine accumulation (% of control)” value [2] was 254%.

— ChEMBL document CHEMBL1131925, “Modulation of multidrug resistance in tumor cells by taxinine derivatives” (Bioorg Med Chem Lett, 1999)
